Like-named read-outs stand apart in the source and are kept apart here. Bounds are passed on as bounds.

A word on the EC50: it is the concentration that produces a half-maximal response. In general, IC50 refers to the concentration that gives 50% inhibition.

In one test the test system is S. Typhimurium 14028. The experiment in a line: Anti-intracellular Salmonella activity in infected RAW264.7 cells (HCA). Type of test: cell-based, Salmonella Typhimurium. The conditions noted are these: for Selectivity ratio (IC50/EC50): IC50 RAW264.7 / EC50 S. Typhimurium 14028.
Another test deals with RAW264.7. As to the kind of experiment: Cytotoxicity in RAW264.7 cells (HCA, MTT cell viability assay). Type of test: cell-based. For orientation: Formazan colour is commonly taken as a measure of viable cells.
[1] abbreviates: Salmonella enterica, TYPHIMURIUM, RAW264.7, read-out: EC50 (μM) S. Typhimurium 14028, intracellular Salmonella in infected RAW264.7 cells.
Setting [2] is: Mus musculus, RAW264.7, read-out: IC50 (μM) RAW264.7.
Where [3] appears, read: Salmonella enterica, TYPHIMURIUM, intracellular Salmonella in infected RAW264.7 cells, read-out: EC50 (μM) S. Typhimurium 14028.
The mark [4] stands for this setting: Mus musculus, cytotoxicity, RAW264.7 cells, read-out: IC50 (μM) RAW264.7.

“2-chloro-11-(3-(3,4-dichlorophenyl)propyl)dibenzo[b,f][1,4]oxazepine [SW15]”: in the test on S. Typhimurium 14028 (intracellular Salmonella in infected RAW264.7 cells, read-out: EC50 (μM) S. Typhimurium 14028), the EC50 stood at 31.1 µM. The half-maximal inhibitory concentration (IC50) with RAW264.7 (cytotoxicity, RAW264.7 cells, read-out: IC50 (μM) RAW264.7) amounted to 82.7 µM.
In the case of `CN(C)CCNC1=Nc2ccccc2Oc2ccc(Cl)cc21` [SW1, N1-(2-chlorodibenzo[b,f][1,4]oxazepin-11-yl)-N2,N2-dimethylethane-1,2-diamine], the “Selectivity ratio (IC50/EC50)” value with S. Typhimurium 14028 is reported as 9.5. For the same compound, in the test on S. Typhimurium 14028 (setting [1]), the EC50 amounted to 3.6 µM. The half-maximal inhibitory concentration (IC50) with RAW264.7 (setting [2]) stood at 34.6 µM.
Taken in the same sequence, the figures for `Clc1ccc2c(c1)C(NCCN1CCCC1)=Nc1ccccc1O2` [SW2, 2-chloro-N-(2-(pyrrolidin-1-yl)ethyl)dibenzo[b,f][1,4]oxazepin-11-amine] were 5.4, 4.9 µM and 26.6 µM.
Taken in the same sequence, the figures for `Clc1ccc2c(c1)C(NCCN1CCCCC1)=Nc1ccccc1O2` [SW3, 2-chloro-N-(2-(piperidin-1-yl)ethyl)dibenzo[b,f][1,4]oxazepin-11-amine] were 5.1, 4.3 µM and 22.2 µM.
Turning to `Clc1ccc2c(c1)C(NCCN1CCOCC1)=Nc1ccccc1O2` [SW4, 2-chloro-N-(2-morpholinoethyl)dibenzo[b,f][1,4]oxazepin-11-amine], in the test with S. Typhimurium 14028, the “Selectivity ratio (IC50/EC50)” value is recorded as 2.6. For the same compound, in the test on S. Typhimurium 14028 (setting [1]), the EC50 was 32 µM. In addition, the half-inhibitory concentration (IC50) with RAW264.7 (setting [2]) amounted to 84.7 µM.
Take `Clc1ccc2c(c1)C(NCCc1cccnc1)=Nc1ccccc1O2` [SW5, 2-chloro-N-(2-(pyridin-3-yl)ethyl)dibenzo[b,f][1,4]oxazepin-11-amine]: in the test on S. Typhimurium 14028, the “Selectivity ratio (IC50/EC50)” value was determined as 1.9. Besides, in the test on S. Typhimurium 14028 (setting [1]), the EC50 worked out at 38.2 µM. Besides, the IC50 with RAW264.7 (setting [2]) was 74 µM.
Taken in the same sequence, the figures for `CN1CCCC1CCNC1=Nc2ccccc2Oc2ccc(Cl)cc21` (stereo not shown) [SW6, 2-chloro-N-(2-(1-methylpyrrolidin-2-yl)ethyl)dibenzo[b,f][1,4]oxazepin-11-amine] were 18.9, 1.2 µM and 23 µM.
Regarding `Clc1ccc2c(c1)C(NCCc1ccccc1)=Nc1ccccc1O2` [SW7, 2-chloro-N-phenethyldibenzo[b,f][1,4]oxazepin-11-amine], in the test on S. Typhimurium 14028, the “Selectivity ratio (IC50/EC50)” value came to 2.7. Besides, in the test on S. Typhimurium 14028 (setting [1]), the concentration for a half-maximal effect (EC50) was determined as 21.2 µM. In the test with RAW264.7 (setting [2]), the IC50 is 56.3 µM.
Take `CCCCCNC1=Nc2ccccc2Oc2ccc(Cl)cc21` [SW8, 2-chloro-N-pentyldibenzo[b,f][1,4]oxazepin-11-amine]: in the test on S. Typhimurium 14028, the “Selectivity ratio (IC50/EC50)” value was found to be 1.3. Besides, in the test on S. Typhimurium 14028 (setting [1]), the EC50 stood at 54.1 µM. Besides, in the test on RAW264.7 (setting [2]), the IC50 came out at 72.7 µM.
Regarding `Clc1ccc2c(c1)C(NCc1ccccc1)=Nc1ccccc1O2` [SW9, N-benzyl-2-chlorodibenzo[b,f][1,4]oxazepin-11-amine], the “Selectivity ratio (IC50/EC50)” value with S. Typhimurium 14028 is listed as 3.1. For the same compound, the EC50 with S. Typhimurium 14028 (setting [1]) came out at 19.7 µM. Moreover, the IC50 in the test on RAW264.7 (setting [2]) came to 60.8 µM.
In the case of `Clc1ccc2c(c1)C(NCC1CC1)=Nc1ccccc1O2` [SW11, 2-chloro-N-(cyclopropylmethyl)dibenzo[b,f][1,4]oxazepin-11-amine], in the test on S. Typhimurium 14028, the “Selectivity ratio (IC50/EC50)” value is recorded as 1.7. In addition, the EC50 in the test with S. Typhimurium 14028 (setting [1]) was found to be 44 µM. For the same compound, in the test with RAW264.7 (setting [2]), the half-inhibitory concentration (IC50) was 74 µM.
The corresponding values for `Oc1ccc(CCNC2=Nc3ccccc3Oc3ccc(Cl)cc32)cc1` [SW12, 4-(2-((2-chlorodibenzo[b,f][1,4]oxazepin-11-yl)amino)ethyl)phenol] are 1.6, 33.5 µM and 52.1 µM.
`CCCNC1=Nc2ccccc2Oc2ccc(Cl)cc21` [SW13, 2-chloro-N-propyldibenzo[b,f][1,4]oxazepin-11-amine]: the “Selectivity ratio (IC50/EC50)” value in the test on S. Typhimurium 14028 is reported as 2.0. For the same compound, the EC50 in the test on S. Typhimurium 14028 (setting [1]) came out at 56 µM. Also, the IC50 in the test with RAW264.7 (setting [2]) was 112 µM.
Regarding `Clc1ccc2c(c1)C(NCCc1ccncc1)=Nc1ccccc1O2` [SW16, 2-chloro-N-(2-(pyridin-4-yl)ethyl)dibenzo[b,f][1,4]oxazepin-11-amine], the “Selectivity ratio (IC50/EC50)” value in the test on S. Typhimurium 14028 is on record as 2.8. Moreover, the EC50 in the test on S. Typhimurium 14028 (setting [1]) was 18.5 µM. For the same compound, the 50% inhibitory concentration (IC50) in the test with RAW264.7 (setting [2]) was 51.1 µM.
The corresponding values for `CCC(CC)NC1=Nc2ccccc2Oc2ccc(Cl)cc21` [SW17, 2-chloro-N-(pentan-3-yl)dibenzo[b,f][1,4]oxazepin-11-amine] are 2.6, 28.5 µM and 72.8 µM.
`CC(C)CCNC1=Nc2ccccc2Oc2ccc(Cl)cc21` [SW18, 2-chloro-N-isopentyldibenzo[b,f][1,4]oxazepin-11-amine]: the “Selectivity ratio (IC50/EC50)” value in the test on S. Typhimurium 14028 amounted to 1.3. For the same compound, in the test with S. Typhimurium 14028 (setting [1]), the EC50 turned out to be 55.1 µM. In the test with RAW264.7 (setting [2]), the IC50 worked out at 70.1 µM.
Consider `Fc1ccc(CCNC2=Nc3ccccc3Oc3ccc(Cl)cc32)cc1` [SW19, 2-chloro-N-(4-fluorophenethyl)dibenzo[b,f][1,4]oxazepin-11-amine], for which the “Selectivity ratio (IC50/EC50)” value in the test with S. Typhimurium 14028 came to 1.8. Besides, the EC50 in the test with S. Typhimurium 14028 (setting [1]) turned out to be 61.5 µM. The IC50 in the test with RAW264.7 (setting [2]) is 112 µM.
Turning to `Clc1ccc(CCNC2=Nc3ccccc3Oc3ccc(Cl)cc32)cc1` [SW20, 2-chloro-N-(4-chlorophenethyl)dibenzo[b,f][1,4]oxazepin-11-amine], the “Selectivity ratio (IC50/EC50)” value with S. Typhimurium 14028 was determined as 2.0. Moreover, the EC50 with S. Typhimurium 14028 (setting [1]) stood at 45.1 µM. Also, the IC50 in the test with RAW264.7 (setting [2]) was 91.6 µM.
In the case of `Clc1ccc2c(c1)C(NCCN1CCCCC1)=Nc1cccnc1N2` [SW21, 8-chloro-N-(2-(piperidin-1-yl)ethyl)-11H-benzo[e]pyrido[3,2-b][1,4]diazepin-6-amine], the “Selectivity ratio (IC50/EC50)” value in the test on S. Typhimurium 14028 is 11.0. Moreover, in the test on S. Typhimurium 14028 (setting [3]), the EC50 was 5.8 µM. The IC50 with RAW264.7 (setting [4]) was determined as 63.6 µM.
Regarding `Clc1ccc2c(c1)C(NCCCN1CCCC1)=Nc1ccccc1O2` [SW22, 2-chloro-N-(3-(pyrrolidin-1-yl)propyl)dibenzo[b,f][1,4]oxazepin-11-amine], the “Selectivity ratio (IC50/EC50)” value in the test with S. Typhimurium 14028 amounted to 14.8. Moreover, the 50% effective concentration (EC50) in the test on S. Typhimurium 14028 (setting [1]) is 1.1 µM. Besides, the IC50 in the test on RAW264.7 (setting [2]) stood at 16.3 µM.
Consider `O=C1CCCN1CCCNC1=Nc2ccccc2Oc2ccc(Cl)cc21` [SW23, 1-(3-((2-chlorodibenzo[b,f][1,4]oxazepin-11-yl)amino)propyl)pyrrolidin-2-one], for which the “Selectivity ratio (IC50/EC50)” value with S. Typhimurium 14028 was over 1.3. In the test with S. Typhimurium 14028 (setting [1]), the EC50 was over 90 µM. In the test with RAW264.7 (setting [2]), the half-maximal inhibitory concentration (IC50) was over 90 µM.
As for `O=C(CNC1=Nc2ccccc2Oc2ccc(Cl)cc21)N1CCCC1` [SW24, 2-((2-chlorodibenzo[b,f][1,4]oxazepin-11-yl)amino)-1-(pyrrolidin-1-yl)ethan-1-one], the EC50 with S. Typhimurium 14028 (setting [1]) was over 90 µM. Further, the IC50 with RAW264.7 (setting [2]) is over 90 µM.
With `CN1CCCC1CCNC1=Nc2cccnc2Nc2ccc(Cl)cc21` (stereo not shown) [SW25, 8-chloro-N-(2-(1-methylpyrrolidin-2-yl)ethyl)-11H-benzo[e]pyrido[3,2-b][1,4]diazepin-6-amine], the “Selectivity ratio (IC50/EC50)” value in the test with S. Typhimurium 14028 turned out to be 26.2. Further, the concentration giving a half-maximal response (EC50) in the test with S. Typhimurium 14028 (setting [3]) was 3.3 µM. Further, the IC50 in the test with RAW264.7 (setting [4]) was found to be 85.5 µM.
Regarding `Clc1ccc2c(c1)C(NCCCN1CCCCC1)=Nc1ccccc1O2` [SW26, 2-chloro-N-(3-(piperidin-1-yl)propyl)dibenzo[b,f][1,4]oxazepin-11-amine], the “Selectivity ratio (IC50/EC50)” value in the test on S. Typhimurium 14028 turned out to be 14.6. In addition, the EC50 in the test with S. Typhimurium 14028 (setting [1]) stood at 1.1 µM. Also, the IC50 with RAW264.7 (setting [2]) was 16.1 µM.
On to `CN(C)CCNC1=Nc2cccnc2Nc2ccc(Cl)cc21` [SW27, N1-(8-chloro-11H-benzo[e]pyrido[3,2-b][1,4]diazepin-6-yl)-N2,N2-dimeth ylethane-1,2-diamine], for which, in the test on S. Typhimurium 14028, the “Selectivity ratio (IC50/EC50)” value was over 13.9. The EC50 in the test on S. Typhimurium 14028 (setting [3]) is 6.5 µM. For the same compound, the IC50 in the test on RAW264.7 (setting [4]) was over 90 µM.
Taken in the same sequence, the figures for `Clc1ccc2c(c1)C(NCCN1CCCC1)=Nc1cccnc1N2` [SW28, 8-chloro-N-(2-(pyrrolidin-1-yl)ethyl)-11H-benzo[e]pyrido[3,2-b][1,4]diazepin-6-amine] were 6.8, 9.3 µM and 63.2 µM.
The corresponding values for `Clc1ccc2c(c1)C(NCCCN1CCCC1)=Nc1cccnc1N2` [SW29, 8-chloro-N-(3-(pyrrolidin-1-yl)propyl)-11H-benzo[e]pyrido[3,2-b][1,4]diazepin-6-amine] are 18.8, 5.3 µM and 101 µM.
The corresponding values for `CN1CCN(CCCNC2=Nc3cccnc3Nc3ccc(Cl)cc32)CC1` [SW31, 8-chloro-N-(3-(4-methylpiperazin-1-yl)propyl)-11H-benzo[e]pyrido[3,2-b][1,4]diazepin-6-amine] are 18.7, 7 µM and 129 µM.
As for `Clc1ccc2c(c1)C(NCCCN1CCCCC1)=Nc1cccnc1N2` [SW32, 8-chloro-N-(3-(piperidin-1-yl)propyl)-11H-benzo[e]pyrido[3,2-b][1,4]diazepin-6-amine], in the test with S. Typhimurium 14028, the “Selectivity ratio (IC50/EC50)” value is reported as 16.4. For the same compound, the EC50 with S. Typhimurium 14028 (setting [3]) came to 6.4 µM. In addition, in the test on RAW264.7 (setting [4]), the IC50 was 105 µM.
With `c1ccc2c(c1)N=C(NCCCN1CCCC1)c1ccccc1N2` [SW33, N-(3-(pyrrolidin-1-yl)propyl)-5H-dibenzo[b,e][1,4]diazepin-11-amine], the “Selectivity ratio (IC50/EC50)” value in the test on S. Typhimurium 14028 is listed as 213.4. Further, the EC50 with S. Typhimurium 14028 (setting [1]) is 0.7 µM. In addition, the IC50 with RAW264.7 (setting [2]) was 143 µM.
For the compound `c1ccc2c(c1)N=C(NCCN1CCCCC1)c1ccccc1N2` [SW35, N-(2-(piperidin-1-yl)ethyl)-5H-dibenzo[b,e][1,4]diazepin-11-amine], in the test on S. Typhimurium 14028, the “Selectivity ratio (IC50/EC50)” value was 29.3. For the same compound, the EC50 in the test on S. Typhimurium 14028 (setting [1]) came out at 3.8 µM. For the same compound, the IC50 in the test on RAW264.7 (setting [2]) amounted to 111 µM.
The corresponding values for `Cc1cc2c(s1)Nc1ccccc1N=C2NCCN1CCCCC1` [SW38, 2-methyl-N-(2-(piperidin-1-yl)ethyl)-10H-benzo[b]thieno[2,3-e][1,4]diazepin-4-amine] are 22.4, 1.6 µM and 36.5 µM.

(Values after patent US11925650B2, “Antibacterial chemical compound, its manufacturing method and its use thereof” (National Taiwan University, priority 2022, dated 2024).)
